# In patent publication US11358962B2, “2-hetaryl imidazol[1,2-a]pyridine derivatives” (Hoffmann-La Roche Inc., priority 2013, dated 2022):
# Structures can show the parent of a compound that is named as a salt.
# Test system: tau aggregates
# Assay: Autoradiography of tritiated radioligands on human cortical brain sections (Braak V AD patient)
# Type: binding
# Settings: radioligand 1.8 (ex. 62), 2.8 (ex. 64), 3.7 (ex. 61), 2.7 nM (ex. 63)
# Description: The radioligand concentrations were 1.8, 2.8, 3.7 and 2.7 nM, respectively.
row,SMILES,autoradiogram staining pattern
1,"[3H]CNc1ccn2cc(-c3ccc(OCF)cc3)nc2c1 [Example 61, [^3H]-[2-(4-Fluoromethoxy-phenyl)-imidazo[1,2-a]pyridin-7-yl]-methyl-amine]",punctate staining of tau aggregates in a layered distribution pattern

# Test system: native tau aggregates
# Assay: TAU radioligand in vitro displacement assay ([3H]T808, autoradiography on human AD brain sections)
# Type: binding
# Settings: compound 10 nM, radioligand [3H]T808 10 nM
# How it was run: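 Displacement of 10 nM [3H]T808 from 10 μm human AD brain cryosections by test compounds at various concentrations, 30 min at room temperature in 50 mM Tris pH 7.4, then cold washes. Autoradiography after 5-day exposure; specific binding = ROI signal minus white-matter signal, expressed as % displacement.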
row,SMILES,% displacement of [3H]T808 (10 nM) at 10 nM [%]
1,"CNc1ccn2cc(-c3cccc(C(=O)OC)c3)nc2c1 [Example 122, Methyl 3-[7-(methylamino)imidazo[1,2-a]pyridin-2-yl]benzoate]",20
2,"FCCCOc1ccc(-c2cn3ccc(N4CCC4)cc3n2)cc1 [Example 125, 7-(Azetidin-1-yl)-2-[4-(3-fluoropropoxy)phenyl]imidazo[1,2-a]pyridine]",32
3,"CNc1ccn2cc(-c3cccnc3)nc2c1 [Example 126, Methyl-(2-pyridin-3-yl-imidazo[1,2-a]pyridin-7-yl)-amine]",12
4,"CNc1ccn2cc(-c3ccc(Cl)s3)nc2c1 [Example 127, N-[2-(5-Chloro-thiophen-2-yl)-imidazo[1,2-a]pyridin-7-yl]-methyl-amine]",26
5,"CNc1ccn2cc(-c3cc(C)ccc3O)nc2c1 [Example 128, 4-Methyl-2-(7-methylamino-imidazo[1,2-a]pyridin-2-yl)-phenol]",34
6,"CNc1ccn2cc(-c3cnn(C)c3)nc2c1 [Example 129, Methyl-[2-(1-methyl-1H-pyrazol-4-yl)-imidazo[1,2-a]pyridin-7-yl]-amine]",50
7,"CNc1ccn2cc(-c3cccc(COC)c3)nc2c1 [Example 130, 2-[3-(Methoxymethyl)phenyl]-N-methyl-imidazo[1,2-a]pyridine-7-amine HCl adduct]",40
8,"COc1ccc(-c2cn3ccc(NC(C)CO)cc3n2)cc1 (centres unmarked) [Example 134, 2-(2-(4-methoxyphenyl)imidazo[1,2-a]pyridin-7-ylamino)propan-1-ol]",21
9,"CNc1ccn2cc(-c3cccc(SC)c3)nc2c1 [Example 136, N-methyl-2-(3-(methylthio)phenyl)imidazo[1,2-a]pyridin-7-amine]",20
10,"COc1ccc(-c2cn3ccc(N4CC4C)cc3n2)cc1 (centres unmarked) [Example 138, 2-(4-methoxyphenyl)-7-(2-methylaziridin-1-yl)imidazo[1,2-a]pyridine]",44
11,"FCCOc1cccc(-c2cn3ccc(N4CCC4)cc3n2)c1 [Example 140, 7-(azetidin-1-yl)-2-(3-(2-fluoroethoxy)phenyl)imidazo[1,2-a]pyridine]",23
12,"CNc1ccn2cc(-c3ccc(N4CCC(F)CC4)cc3)nc2c1 [Example 141, 2-(4-(4-fluoropiperidin-1-yl)phenyl)-N-methylimidazo[1,2-a]pyridin-7-amine]",35
13,"FCCOCCOc1ccc(-c2cn3ccc(N4CCC4)cc3n2)cc1 [Example 144, 7-(azetidin-1-yl)-2-(4-(2-(2-fluoroethoxy)ethoxy)phenyl)imidazo[1,2-a]pyridine]",27

# Other lines, results leading:
row,% displacement of [3H]T808 (10 nM) at 10 nM [%],SMILES
1,23,"CNc1ccn2cc(-c3cccc(CO)c3)nc2c1 [Example 123, [3-[7-(Methylamino)imidazo[1,2-a]pyridin-2-yl]phenyl]methanol]"
2,39,"FCCOc1ccc(-c2cn3ccc(NC4CC4)cc3n2)cc1 [Example 124, N-Cyclopropyl-2-[4-(2-fluoroethoxy)phenyl]imidazo[1,2-a]pyridin-7-amine]"
3,43,"CNc1ccn2cc(-c3ccc(NCCF)cc3)nc2c1 [Example 131, 2-(4-(2-fluoroethylamino)phenyl)-N-methylimidazo[1,2-a]pyridin-7-amine]"
4,38,"COc1ccc(-c2cn3ccc(NCCCF)cc3n2)cc1 [Example 132, N-(3-fluoropropyl)-2-(4-methoxyphenyl)imidazo[1,2-a]pyridin-7-amine]"
5,40,"CNc1ccn2cc(-c3cccc(OCF)c3)nc2c1 [Example 133, 2-(3-(fluoromethoxy)phenyl)-N-methylimidazo[1,2-a]pyridin-7-amine]"
6,14,"COc1cc(-c2cn3ccc(NCCF)cc3n2)ccc1C [Example 135, N-(2-fluoroethyl)-2-(3-methoxy-4-methylphenyl)imidazo[1,2-a]pyridin-7-amine]"
7,41,"CNc1ccn2cc(-c3cccc(OCCF)c3)nc2c1 [Example 137, 2-(3-(2-fluoroethoxy)phenyl)-N-methylimidazo[1,2-a]pyridin-7-amine]"
8,5,"CNc1ccn2cc(-c3cccc(OCCCF)c3)nc2c1 [Example 139, 2-(3-(3-fluoropropoxy)phenyl)-N-methylimidazo[1,2-a]pyridin-7-amine]"
9,11,"COc1cc(-c2cn3ccc(NCCF)cc3n2)ccc1O [Example 142, 4-(7-(2-fluoroethylamino)imidazo[1,2-a]pyridin-2-yl)-2-methoxyphenol]"
10,23,"FCCNc1ccn2cc(-c3ccc4c(c3)OCCO4)nc2c1 [Example 143, 2-(2,3-dihydrobenzo[b][1,4]dioxin-6-yl)-N-(2-fluoroethyl)imidazo[1,2-a]pyridin-7-amine]"
11,29,"Oc1ccc(-c2cn3ccc(NCCF)cc3n2)cc1 [Example 145, 4-(7-(2-fluoroethylamino)imidazo[1,2-a]pyridin-2-yl)phenol]"
12,33,"Oc1cccc(-c2cn3ccc(NCCF)cc3n2)c1 [Example 146, 3-(7-(2-fluoroethylamino)imidazo[1,2-a]pyridin-2-yl)phenol]"
13,23,"FCCNc1ccn2cc(-c3ccc(N4CCOCC4)cc3)nc2c1 [Example 147, N-(2-Fluoroethyl)-2-(4-morpholin-4-ylphenyl)imidazo[1,2-a]pyridin-7-amine]"
14,20,"FCCCOc1ccc(-c2cn3ccc(NC4CC4)cc3n2)cc1 [Example 148, N-Cyclopropyl-2-[4-(3-fluoropropoxy)phenyl]imidazo[1,2-a]pyridin-7-amine]"
15,23,"FCCNc1ccn2cc(-c3ccco3)nc2c1 [Example 149, N-(2-Fluoroethyl)-2-(furan-2-yl)imidazo[1,2-a]pyridin-7-amine]"
